# Test results: PMC10575836, “Elevated acetate kinase (ackA) gene expression, activity, and biofilm formation observed in methicillin-resistant strains of Staphylococcus aureus (MRSA)” (Journal of Genetic Engineering & Biotechnology, 2023)
# Target: T1, recombinant ackA (S. aureus ATCC12600 acetate kinase) (Staphylococcus aureus, UniProt Q8NW53)
# T1 construct: full-length, His-6 tag from pQE 30 (Sal I/Hind III), clone PSackA, expressed in E. coli DH5alpha, nickel column, 44 kDa on SDS-PAGE
# T1 sequence (Q8NW53 1-400): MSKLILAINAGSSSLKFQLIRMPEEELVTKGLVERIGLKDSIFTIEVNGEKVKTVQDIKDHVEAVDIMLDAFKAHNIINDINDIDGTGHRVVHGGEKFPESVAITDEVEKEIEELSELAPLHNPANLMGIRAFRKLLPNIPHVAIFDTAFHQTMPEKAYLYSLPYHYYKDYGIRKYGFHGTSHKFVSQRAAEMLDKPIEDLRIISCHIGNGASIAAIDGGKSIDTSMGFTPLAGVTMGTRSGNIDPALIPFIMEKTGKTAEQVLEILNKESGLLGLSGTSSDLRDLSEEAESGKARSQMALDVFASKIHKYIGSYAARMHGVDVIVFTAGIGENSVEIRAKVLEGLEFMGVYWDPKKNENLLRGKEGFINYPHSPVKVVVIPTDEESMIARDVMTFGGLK
# Assay: coupled pyruvate kinase / lactate dehydrogenase assay, NADH at […] nm
# Format: biochemical
# Conditions: 2 mM potassium acetate, 1.5 mM ATP, 2 mM MgCl2, 100 mM Tris-HCl pH 7.3
smiles,measurement,value
CC(=O)O [potassium acetate],"coupled pyruvate kinase / lactate dehydrogenase assay, NADH at 340 nm",Assays were initiated by the addition of either the cytosolic fraction or pure recombinant ackA
